The text below walks through data of paper PMC6019934 (ChemMedChem, 2018).

Assay [1] addresses MraY from C. bolteae (Enterocloster bolteae, UniProt R0BTE9). In words: Fluorescence-based in vitro MraY assay, MraY from C. bolteae. The following applies: IC50 ± SD. Format: biochemical, Clostridium bolteae.
The test system of assay [2] is E. coli DH5α strain. In words: Minimal inhibitory concentration against growth of E. coli DH5α. Format: cell-based. The following applies: Escherichia coli, read-out: MIC (E. coli DH5α).
For assay [3], the target named is T1, MraY from Aquifex aeolicus (Aquifex aeolicus, UniProt O66465).
T1 sequence (O66465 1-359): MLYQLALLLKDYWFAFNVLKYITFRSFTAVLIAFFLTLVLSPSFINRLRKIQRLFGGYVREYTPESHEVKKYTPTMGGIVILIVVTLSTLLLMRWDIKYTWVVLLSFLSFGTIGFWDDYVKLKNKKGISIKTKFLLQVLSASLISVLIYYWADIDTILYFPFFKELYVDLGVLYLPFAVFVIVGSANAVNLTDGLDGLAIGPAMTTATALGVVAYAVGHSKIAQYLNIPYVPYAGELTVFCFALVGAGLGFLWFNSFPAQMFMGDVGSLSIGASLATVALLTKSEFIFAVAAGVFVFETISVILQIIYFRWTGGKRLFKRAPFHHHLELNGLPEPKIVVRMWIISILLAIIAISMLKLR
Format: biochemical.

In assay [4] the target is T2, MraY from S. aureus (Staphylococcus aureus, UniProt Q2FZ93).
T2 sequence (Q2FZ93 1-321): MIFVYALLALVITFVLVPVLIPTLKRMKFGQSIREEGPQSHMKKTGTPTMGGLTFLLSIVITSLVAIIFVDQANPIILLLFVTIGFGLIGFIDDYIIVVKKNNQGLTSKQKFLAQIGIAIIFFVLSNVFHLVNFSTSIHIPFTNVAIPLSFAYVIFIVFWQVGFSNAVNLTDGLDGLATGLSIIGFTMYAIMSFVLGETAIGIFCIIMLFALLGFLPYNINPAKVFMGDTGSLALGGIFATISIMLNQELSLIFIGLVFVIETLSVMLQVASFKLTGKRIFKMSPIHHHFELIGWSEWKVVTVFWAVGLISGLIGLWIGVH
In words: biochemical. The assay is classed as biochemical.

Assay [5] concerns E. coli efflux-deficient ΔtolC mutant. Put plainly: Minimal inhibitory concentration against growth of E. coli ΔtolC. The assay is classed as cell-based.
Assay [6] concerns S. aureus subsp. aureus (Newman strain). In words: Minimal inhibitory concentration against growth of S. aureus. The assay is classed as cell-based.
Setting [7] is: read-out: IC50 (MraY C. bolteae crude), protein in crude membranes.
Setting [8] is: read-out: IC50 (MraY C. bolteae solubil.), protein in solubilized and purified form.
[9] abbreviates: read-out: IC50 (MraY Aquifex aeolicus), solubilized and purified form, IC50 ± SD.
Setting [10] is: read-out: IC50 (MraY S. aureus), crude membranes, IC50 ± SD.
The mark [11] stands for this setting: IC50 (MraY C. bolteae crude), protein in crude membranes.
Where [12] appears, read: IC50 (MraY C. bolteae solubil.), protein in solubilized and purified form.

≈ marks a conversion by molar mass, not a printed value. Where two headings read alike, the source gives them in different places. Bounds are passed on as bounds.

What is called IC50 is the midpoint of a concentration-inhibition curve. The MIC is the least concentration at which growth counts as inhibited.

Consider `CO[C@H]1[C@H](O[C@H]([C@H]2O[C@@H](n3ccc(=O)[nH]c3=O)[C@H](O)[C@@H]2O)[C@H](NCCCNC(=O)[C@@H](NC(=O)[C@@H](NC(=O)N[C@H](C(=O)O)C(C)C)[C@@H]2CCN=C(N)N2)[C@@H](OC(=O)CCCCC(C)C)C(C)C)C(=O)O)O[C@H](CN)[C@H]1O` [B6 5, muraymycin B6], for which the IC50 in assay [1] (setting [7]) was 0.036 nM; in assay [1] (setting [8]), 0.38 ± 0.03 nM; in assay [3] (setting [9]), 0.19 ± 0.02 nM; in assay [4] (setting [10]), 0.021 ± 0.002 nM. Also, in assay [2], the MIC was more than 32 µg/mL. Moreover, in assay [5], the “MIC (E. coli ΔtolC)” value turned out to be 1 µg/mL (≈ 0.933 µM).

As for `CO[C@H]1[C@H](O[C@H]([C@H]2O[C@@H](n3ccc(=O)[nH]c3=O)[C@H](O)[C@@H]2O)[C@H](NCCCNC(=O)[C@@H](NC(=O)[C@@H](NC(=O)N[C@H](C(=O)O)C(C)C)[C@@H]2CCN=C(N)N2)[C@@H](OC(=O)CCCCCCC(C)C)C(C)C)C(=O)O)O[C@H](CN)[C@H]1O` [B2 4, muraymycin B2], the IC50 in assay [1] (setting [7]) is 0.0083 nM; in assay [1] (setting [8]) it was 0.14 ± 0.01 nM; in assay [3] (setting [9]), 0.11 ± 0.01 nM; in assay [4] (setting [10]) it was 0.01 ± 0.002 nM. Also, in assay [2], the MIC was more than 32 µg/mL. The “MIC (E. coli ΔtolC)” value in assay [5] is 1 µg/mL (≈ 0.909 µM).

As to `CO[C@H]1[C@H](O[C@H]([C@H]2O[C@@H](n3ccc(=O)[nH]c3=O)[C@H](O)[C@@H]2O)[C@H](NCCCNC(=O)[C@@H](NC(=O)[C@@H](NC(=O)N[C@H](C(=O)O)C(C)C)[C@@H]2CCNC(=N)N2)[C@@H](O)C(C)C)C(=O)O)O[C@H](CN)[C@H]1O` [C1 6, muraymycin C1], the IC50 in assay [1] (setting [11]) was 0.093 nM; in assay [1] (setting [12]) it was 0.45 ± 0.17 nM; in assay [4], 0.016 ± 0.002 nM. In assay [2], the MIC is more than 32 µg/mL. Further, the “MIC (E. coli ΔtolC)” value in assay [5] stood at 1 µg/mL (≈ 1.06 µM).

As to `CO[C@H]1[C@H](O[C@H]([C@H]2O[C@@H](n3ccc(=O)[nH]c3=O)[C@H](O)[C@@H]2O)[C@H](NCCCNC(=O)[C@@H](NC(=O)[C@@H](NC(=O)N[C@H](C(=O)O)C(C)C)[C@@H]2CCNC(=N)N2)[C@@H](OC(=O)CCCCCCCCCCCCN(O)C(=N)N)C(C)C)C(=O)O)O[C@H](CN)[C@H]1O` [A1 3, muraymycin A1], the IC50 in assay [1] (setting [7]) was 0.017 nM; in assay [1] (setting [8]), 0.16 ± 0.04 nM; in assay [3] (setting [9]), 0.11 ± 0.02 nM; in assay [4] (setting [10]) it was 0.027 ± 0.003 nM. Moreover, in assay [6], the “antibacterial activity against S. aureus in words” value is listed as “only congener with notable activity against S. aureus”. Further, in assay [2], the MIC was more than 32 µg/mL. Also, the “MIC (E. coli ΔtolC)” value in assay [5] amounted to 2 µg/mL (≈ 1.65 µM).

Consider `CC(C)C[C@H](NC(=O)[C@@H](NC(=O)N[C@H](C(=O)O)C(C)C)[C@@H]1CCNC(=N)N1)C(=O)NCCCN[C@H](C(=O)O)[C@H](O[C@@H]1O[C@H](CN)[C@@H](O)[C@H]1O)[C@H]1O[C@@H](n2ccc(=O)[nH]c2=O)[C@H](O)[C@@H]1O` [D2 8, muraymycin D2], for which the IC50 in assay [1] (setting [11]) was 25 nM; in assay [1] (setting [12]) it was 200 ± 30 nM; in assay [3], 46 ± 13 nM; in assay [4], 0.39 ± 0.11 nM. Besides, the MIC in assay [2] was more than 32 µg/mL. In assay [5], the “MIC (E. coli ΔtolC)” value worked out at 1 µg/mL (≈ 1.09 µM).

Regarding `CO[C@H]1[C@H](O[C@H]([C@H]2O[C@@H](n3ccc(=O)[nH]c3=O)[C@H](O)[C@@H]2O)[C@H](NCCCNC(=O)[C@H](CC(C)C)NC(=O)[C@@H](NC(=O)N[C@H](C(=O)O)C(C)C)[C@@H]2CCNC(=N)N2)C(=O)O)O[C@H](CN)[C@H]1O` [D1 7, muraymycin D1], the IC50 in assay [1] (setting [11]) was 40 nM; in assay [1] (setting [12]), 380 ± 110 nM; in assay [3], 99 ± 30 nM; in assay [4], 0.48 ± 0.13 nM. Moreover, the minimal inhibitory concentration (MIC) in assay [2] is more than 32 µg/mL. Further, in assay [3] (solubilized Aquifex aeolicus protein, relative to C1 6), the “fold lower inhibitory activity than C1 6 (Aquifex aeolicus)” value is “ca. 280 fold”. In addition, the “fold difference in MraY inhibition between C1 6 and D1 7” value in assay [4] (crude membranes only (S. aureus and C. bolteae MraY)) is 30- to 430 fold. In assay [4] (crude membranes, relative to C1 6), the “fold less active MraY inhibitor than C1 6 (S. aureus)” value was “ca. 30 fold”. Further, the “MIC (E. coli ΔtolC)” value in assay [5] came out at 1 µg/mL (≈ 1.08 µM).
